Measured values: ChEMBL document CHEMBL4130381, “Puromycin based inhibitors of aminopeptidases for the potential treatment of hematologic malignancies” (Eur J Med Chem, 2017)

Assays:
GFP protein synthesis [1] = assay: Toxicity in human HeLa cells expressing pCFE-GFP assessed as inhibition of GFP proetin synthesis at 25 uM incubated for 30 mins measured for 2 hrs by spectrophotometric method relative to control; format: cell-based
[2] = Cytotoxicity against African green monkey Vero cells assessed as reduction in cell proliferation after 72 hrs by MTT assay; format: cell-based; conditions: chlorocebus sabaeus
GFP protein synthesis [3] = assay: Toxicity in human HeLa cells expressing pCFE-GFP assessed as inhibition of GFP proetin synthesis at 10 uM incubated for 30 mins measured for 2 hrs by spectrophotometric method relative to control; format: cell-based
HL-60 = assay: cells; conditions: Homo sapiens, HL-60, 72 h
Description: Antiproliferative activity against human HL60 cells after 72 hrs by MTT assay

MOLT-4 = assay: cells; conditions: Homo sapiens, MOLT-4, 72 h
Description: Antiproliferative activity against human MOLT4 cells after 72 hrs by MTT assay

[4] = molecular target: Puromycin-sensitive aminopeptidase (Homo sapiens, UniProt P55786); assay: Inhibition of recombinant human N-terminal His6-MBP-tagged PSA expressed in Escherichia coli BL21 STAR (DE3) using 4-Ala-MNA as substrate measured for 30 mins by thefluorescence assay
Aminopeptidase N = Aminopeptidase N (Homo sapiens, UniProt P15144); assay: Inhibition of recombinant human C-terminal His10-tagged APN (Lys69 to Lys967 residues) using Ala-AMC as substrate measured for 30 mins by fluorescence assay
Aminopeptidase N, sequence (P15144 whole entry): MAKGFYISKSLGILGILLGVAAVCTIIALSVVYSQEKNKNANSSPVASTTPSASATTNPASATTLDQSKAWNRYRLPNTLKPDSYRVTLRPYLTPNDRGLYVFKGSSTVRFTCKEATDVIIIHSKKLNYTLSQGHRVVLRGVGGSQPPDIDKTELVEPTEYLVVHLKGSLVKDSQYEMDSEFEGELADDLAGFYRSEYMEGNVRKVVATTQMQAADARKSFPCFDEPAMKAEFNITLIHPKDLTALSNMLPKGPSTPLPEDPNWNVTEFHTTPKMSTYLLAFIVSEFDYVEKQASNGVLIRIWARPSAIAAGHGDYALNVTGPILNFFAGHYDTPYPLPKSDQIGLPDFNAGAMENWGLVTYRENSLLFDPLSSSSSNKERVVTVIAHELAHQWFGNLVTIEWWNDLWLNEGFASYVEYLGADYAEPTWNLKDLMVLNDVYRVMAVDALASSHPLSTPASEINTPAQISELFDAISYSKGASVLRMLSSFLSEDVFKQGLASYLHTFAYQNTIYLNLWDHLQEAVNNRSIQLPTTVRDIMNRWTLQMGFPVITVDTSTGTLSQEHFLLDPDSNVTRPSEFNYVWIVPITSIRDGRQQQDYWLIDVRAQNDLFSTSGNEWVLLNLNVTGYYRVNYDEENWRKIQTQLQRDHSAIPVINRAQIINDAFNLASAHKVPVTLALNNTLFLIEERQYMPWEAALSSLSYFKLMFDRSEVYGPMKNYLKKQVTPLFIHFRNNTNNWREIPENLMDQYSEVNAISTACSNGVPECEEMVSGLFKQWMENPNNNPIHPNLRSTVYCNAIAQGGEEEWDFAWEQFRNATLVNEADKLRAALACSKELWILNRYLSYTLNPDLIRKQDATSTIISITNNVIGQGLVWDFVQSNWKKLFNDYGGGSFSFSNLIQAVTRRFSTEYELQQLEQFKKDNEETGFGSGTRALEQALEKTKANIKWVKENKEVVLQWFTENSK

Puromycin-sensitive aminopeptidase, sequence (P55786 whole entry): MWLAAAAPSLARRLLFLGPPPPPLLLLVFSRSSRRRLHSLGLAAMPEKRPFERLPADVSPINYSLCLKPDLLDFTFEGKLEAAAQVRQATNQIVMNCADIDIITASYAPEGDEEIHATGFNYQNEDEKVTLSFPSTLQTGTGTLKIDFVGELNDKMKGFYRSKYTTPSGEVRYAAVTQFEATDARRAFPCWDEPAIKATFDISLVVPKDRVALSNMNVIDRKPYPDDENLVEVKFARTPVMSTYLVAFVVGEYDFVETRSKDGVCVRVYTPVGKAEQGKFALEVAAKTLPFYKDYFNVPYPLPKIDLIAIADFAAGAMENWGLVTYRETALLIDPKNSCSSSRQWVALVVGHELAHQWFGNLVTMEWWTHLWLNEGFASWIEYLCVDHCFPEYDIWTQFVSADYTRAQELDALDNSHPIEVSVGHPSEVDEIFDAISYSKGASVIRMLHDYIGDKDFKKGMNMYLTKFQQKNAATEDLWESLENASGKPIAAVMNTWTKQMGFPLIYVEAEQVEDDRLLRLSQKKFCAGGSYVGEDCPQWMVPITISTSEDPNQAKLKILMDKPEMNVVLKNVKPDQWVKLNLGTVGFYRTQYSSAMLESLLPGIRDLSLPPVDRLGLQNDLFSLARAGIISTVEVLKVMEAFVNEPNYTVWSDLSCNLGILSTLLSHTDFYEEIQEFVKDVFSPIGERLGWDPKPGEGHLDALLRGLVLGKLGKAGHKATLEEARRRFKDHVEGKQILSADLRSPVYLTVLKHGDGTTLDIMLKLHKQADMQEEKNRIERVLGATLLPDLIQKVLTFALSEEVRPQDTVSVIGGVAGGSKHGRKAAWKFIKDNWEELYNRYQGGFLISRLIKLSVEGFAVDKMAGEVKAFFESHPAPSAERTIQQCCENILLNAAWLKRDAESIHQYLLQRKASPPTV

EC50 (HL-60) [µM] | EC50 (MOLT-4) [µM] | IC50 [4] [µM] | IC50 (Aminopeptidase N) [µM] | Structure (SMILES) | inhibition at 30 min, 25 µM (GFP protein synthesis [1]) [%] | CC50 at 72 h [2] [µM] | inhibition at 30 min, 10 µM (GFP protein synthesis [3]) [%]
0.19 | 0.18 | – | – | CN(C)c1ncnc2c1ncn2[C@@H]1O[C@H](CO)[C@@H](NC(=O)[C@@H](N)CSCc2ccccc2)[C@H]1O | 30 | 0.88 | 30
0.41 | 0.39 | – | – | CN(C)c1ncnc2c1ncn2[C@@H]1O[C@H](CO)[C@@H](NC(=O)[C@@H](N)Cc2ccccc2)[C@H]1O | 59 | 3.2 | –
> 100 | 31 | – | – | CN(C)c1ncnc2c1ncn2[C@@H]1O[C@H](CO)[C@@H](NC(=O)[C@@H](N)CSC(c2ccccc2)(c2ccccc2)c2ccccc2)[C@H]1O | 0 | > 100 | –
10 | 14 | – | – | CN(C)c1ncnc2c1ncn2[C@@H]1O[C@H](CO)[C@@H](NC(=O)[C@H](N)CSC(c2ccccc2)(c2ccccc2)c2ccccc2)[C@H]1O | 0 | 15 | –
46 | 14 | – | – | CN(C)c1ncnc2c1ncn2[C@@H]1O[C@H](CO)[C@@H](NC(=O)[C@H](N)CSCc2ccccc2)[C@H]1O | 0 | 17 | –
0.055 | 0.17 | 9.7 | 41 | COc1ccc(C[C@H](N)C(=O)N[C@H]2[C@@H](O)[C@H](n3cnc4c(N(C)C)ncnc43)O[C@@H]2CO)cc1 [PUROMYCIN] | 99 | 2.8 | –
4.7 | 2.1 | 0.26 | 0.68 | CC(C)C[C@@H](C(=O)N[C@H](C(=O)OC1CCCC1)c1ccccc1)[C@H](O)C(=O)NO [TOSEDOSTAT] | 35 | 13 | –
> 100 | > 100 | 3.5 | – | CC(C)C[C@H](NC(=O)[C@@H](O)[C@H](N)Cc1ccccc1)C(=O)O [UBENIMEX] | 28 | 25 to 100 | –

Structure (SMILES) | EC50 (HL-60) [µM] | EC50 (MOLT-4) [µM] | IC50 [4] [µM] | IC50 (Aminopeptidase N) [µM] | inhibition at 30 min, 25 µM (GFP protein synthesis [1]) [%] | CC50 at 72 h [2] [µM] | inhibition at 30 min, 10 µM (GFP protein synthesis [3]) [%]
CN(C)c1ncnc2c1ncn2[C@@H]1O[C@H](CO)[C@@H](NC(=O)[C@@H](N)CSC(c2ccccc2)c2ccccc2)[C@H]1O | 32 | 1.3 | – | – | 0 | > 100 | –
N[C@@H](CSC(c1ccccc1)c1ccccc1)C(=O)NCCCO | > 100 | > 100 | – | – | 0 | > 100 | –
CN(C)c1ncnc2c1ncn2[C@@H]1O[C@H](CO)[C@@H](NC(=O)[C@H](N)CSC(c2ccccc2)c2ccccc2)[C@H]1O | 34 | 11 | – | – | 0 | 46 | –
